Results published in PubChem BioAssay (NCI).
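Protocol summary: plate cells (96-well), add compound at 5 concentrations, incubate 48 h, interpolate endpoints linearly. The concentration for 50% growth inhibition is given as GI50. TGI: concentration producing complete growth inhibition.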

Experiments:
Assay in all cases: NCI tumour cell line growth inhibition, 48 h
NCI-H522 lung = test system: NCI-H522 lung
HS 578T breast = test system: HS 578T breast
SN12C renal = test system: SN12C renal
MDA-MB-435 = test system: MDA-MB-435
HCT-15 colon = test system: HCT-15 colon
SK-MEL-5 melanoma = test system: SK-MEL-5 melanoma
RXF 393 renal = test system: RXF 393 renal
LOX IMVI melanoma = test system: LOX IMVI melanoma

Structure (SMILES) | TGI (NCI-H522 lung) [µM] | TGI (HS 578T breast) [µM] | TGI (SN12C renal) [µM] | TGI (MDA-MB-435) [µM] | TGI (HCT-15 colon) [µM] | TGI (SK-MEL-5 melanoma) [µM] | TGI (RXF 393 renal) [µM] | TGI (LOX IMVI melanoma) [µM] | GI50 (NCI-H522 lung) [µM] | GI50 (HS 578T breast) [µM] | GI50 (LOX IMVI melanoma) [µM] | GI50 (SN12C renal) [µM] | GI50 (MDA-MB-435) [µM] | GI50 (HCT-15 colon) [µM] | GI50 (SK-MEL-5 melanoma) [µM] | GI50 (RXF 393 renal) [µM]
COc1ccc(N2C(=O)CC(C3CC(C(C)(C)C)CCC3=O)C2=O)cc1 (centres undefined) | 32.9 | > 100 | > 100 | > 100 | > 100 | > 100 | > 100 |  |  |  |  |  |  |  |  | 
Nc1c2c(nc3cc(F)c(F)cc13)CCC2 | > 100 | > 100 | > 100 | > 100 | > 100 | > 100 | > 100 | > 100 |  |  |  |  |  |  |  | 
CN(C)CCCNC(=O)c1cc2[nH]c3c(cnc4ccc([N+](=O)[O-])cc43)c(=O)c2n1C | 32.1 | 41.3 | 35.4 | 33.6 | 31.8 | 31.1 | 18.7 | 27.5 | 17.4 | 18.1 | 14.4 | 20.8 | 17.3 | 15.2 | 17.1 | 4.88
O=Cc1cn(CCCCCCCCCCCCn2cc(C=O)c3ccccc32)c2ccccc12 | > 100 | > 100 | > 100 | > 100 | > 100 | > 100 | > 100 | > 100 |  |  |  |  |  |  |  | 
N#Cc1c(-c2ccc(Cl)cc2)c2c([nH]c1=O)-c1ccccc1SC2 |  | > 100 | > 100 | > 100 | > 100 | > 100 | 77.4 | 73.9 |  |  |  |  |  |  |  | 
CCCCCCCCCC1(N=[N+]=[N-])C(=O)c2ccccc2N(C)C1=O (centres undefined) |  | 83.8 | 57.8 | 6.88 | > 100 | 26.6 | 55.3 | 34.3 |  |  |  |  |  |  |  | 
CC(C)(C)[Si](C)(C)OCC1OC(n2ccc(N)nc2=O)C(O[Si](C)(C)C(C)(C)C)C1O[Si](C)(C)C(C)(C)C (centres undefined) | 3.36 | 7.89 | 10.2 |  | 5.25 | 3.43 |  | 3.23 |  |  |  |  |  |  |  | 
CCCC(=O)n1[nH]c(=O)n(-c2ccc(Cl)cc2)c1=O |  | > 100 | > 100 | > 100 | > 100 | > 100 | > 100 | > 100 |  |  |  |  |  |  |  | 
Oc1c(C2=NNC(c3ccc(Cl)cc3Cl)C2)ccc2ccccc12 (centres undefined) | > 100 | > 100 | > 100 | > 100 | > 100 | > 100 | > 100 |  |  |  |  |  |  |  |  | 
CCCCN(CCCC)CC(O)c1cc(-c2ccc(C(F)(F)F)cc2)nc(-c2ccc(C(F)(F)F)cc2)c1 (centres undefined) | > 100 |  | > 100 | > 100 | > 100 |  |  | > 100 |  |  |  |  |  |  |  | 
COc1cc(OC)c(-c2ccc(OCc3ccccc3)c3c(OC)cc(C)cc23)c2c1C(C)=N[C@H](C)C2 | 3.6 | 4.41 | 3.74 | 4.12 | 4 | 4.1 | 4.94 | 3.65 |  |  |  |  |  |  |  | 
CC(C)(C)NC(NC(C)(C)C)=C(/C=C(/Cl)[N+](=O)[O-])[N+](=O)[O-] | > 100 | > 100 | > 100 | 38.3 | > 100 | > 100 | > 100 | > 100 |  |  |  |  |  |  |  | 
O=C1NC(NNc2ccccc2)=N/C1=C\c1ccccc1O | > 100 | > 100 | > 100 | > 100 | > 100 |  | > 100 | > 100 |  |  |  |  |  |  |  | 
O=C1C2CC=CCC2C(=O)N1n1c(Cc2ccc(Cl)cc2)n[nH]c1=O (centres undefined) | > 100 | > 100 | > 100 | > 100 | > 100 | > 100 | > 100 | > 100 |  |  |  |  |  |  |  | 
COC(=O)c1cc2c3c(ccc2[nH]1)N(C(=O)c1cc2cc(OC)c(OC)c(OC)c2[nH]1)CC3CCl (centres undefined) | > 100 | > 100 |  | > 100 | > 100 | > 100 | > 100 | > 100 |  |  |  |  |  |  |  | 
Nc1ccc(Oc2ccc(C34CC5CC6C3CC3CC4C(C5)C6(c4ccc(Oc5ccc(N)cc5)cc4)C3)cc2)cc1 | 47.7 | > 67.5 | > 100 | 19 | > 100 | 5.27 | 47.8 | > 76.1 |  |  |  |  |  |  |  | 
NC1CC(=O)c2c(Br)csc21 (centres undefined) |  |  | > 100 | 66.3 | > 100 | > 100 | > 100 |  |  |  |  |  |  |  |  | 
CN=c1nc2sc3c(c2c(NC(=S)NC)s1)CCCC3 | > 100 | 97.4 | > 100 | > 100 | > 100 | > 100 | 82.9 | > 100 |  |  |  |  |  |  |  | 
O=c1cc(N2CCOCC2)[nH]c(=O)n1-c1ccc(F)cc1 | > 100 | > 100 | > 100 | > 100 | > 100 |  | > 100 | > 100 |  |  |  |  |  |  |  | 
COc1cc(C(=O)n2c3ccc(Br)cc3c3nc4ccccc4nc32)cc(OC)c1OC | > 100 |  | > 100 | > 100 | > 100 | > 100 | 66.4 | > 100 |  |  |  |  |  |  |  | 
OCCCCCCCCCCCOc1ccc(C2OCC3(CO2)COC(c2ccc(OCCCCCCCCCCCO)cc2)OC3)cc1 (centres undefined) |  | > 50 | > 50 | > 50 | > 50 | > 50 |  | > 50 |  |  |  |  |  |  |  | 
CC(=O)O[C@H]1C[C@H]2[C@@H](OC(C)=O)/C=C3\C[C@](C)(C(=O)[C@H](O)C(=C1C)C2(C)C)[C@@H](O)C[C@@H]3OC(=O)[C@H](O)[C@H](c1ccccc1)N(C)C | > 100 | > 100 | > 100 | > 100 | > 100 | > 100 | > 100 | > 100 |  |  |  |  |  |  |  | 
CCOc1cc2c(OCc3ccccc3)cc3c4cc(OC)c(OC)cc4c[n+](C)c3c2cc1OC | 1.43 |  | > 100 |  | > 100 |  | 9.18 |  |  |  |  |  |  |  |  | 
CN(Cc1cnc2nc(N)nc(N)c2n1)c1ccc(C(=O)NC(CCC(=O)NCCC(P(=O)(O)O)P(=O)(O)O)C(=O)O)cc1 (centres undefined) | > 100 | > 100 | > 100 | > 100 | > 100 | > 100 | > 100 | > 100 |  |  |  |  |  |  |  | 
C1C2CC3CC1CC(Nc1nc(NC45CC6CC(CC(C6)C4)C5)nc(NC45CC6CC(CC(C6)C4)C5)n1)(C2)C3 |  | > 100 | > 100 | > 100 | > 100 | > 42.8 | > 100 | > 52.1 |  |  |  |  |  |  |  | 
